# Molecular target: SARS-CoV-2 Papain-like (PLpro) protease (Severe acute respiratory syndrome coronavirus 2, UniProt P0DTD1)
# Assay: SARS-CoV-2 Papain-like (PLpro) protease biochemical enzyme inhibition assay (ubiquitin-fluorophore substrate, Ub-R110)
# Details: Ub-R110 substrate; run in duplicate; read-out: PLpro IC50
row,SMILES,IC50 [µM]
1,COc1ccc(C2(NC(=O)c3ccccc3CNC(=O)C(=O)NCC#Cc3nccs3)CC2)cc1-c1cnn(C2CC2)c1 [Example 247],< 0.1
2,C[C@@H](NC(=O)c1ccccc1CNC(=O)C(=O)NCC#N)c1cc(-c2cccs2)cc(C(F)(F)F)c1 [Example 460],< 0.1
3,C[C@@H](C#Cc1nccs1)NC(=O)C(=O)NCc1ccccc1C(=O)NC1(c2cc(Cl)c3nn(C4CC4)cc3c2)CC1 [Example 335],< 0.1
4,C#CCNC(=O)C(=O)NCc1ccccc1C(=O)NC1(c2cc(Cl)cc(-c3cnn(C4CC4)c3)c2)CC1 [Example 453],< 0.1
5,O=C(NCC#Cc1cnc(C(F)(F)F)nc1)C(=O)NCc1ccccc1C(=O)NC1(c2ccc3ccccc3c2)CC1 [Example 181],< 0.1
6,C[C@H](NC(=O)c1ccccc1CNC(=O)C(=O)NCC#N)c1cc(C(F)(F)F)nc2ccccc12 [Example 327],< 0.1
7,N#C/C=C/CNC(=O)C(=O)NCc1ccccc1C(=O)NC1(c2ccc3c4c(cccc24)CC3)CC1 [Example 438],< 0.1
8,Cc1nn(C)c(C)c1-c1cc(F)c(F)c(C2(NC(=O)c3ccccc3CNC(=O)C(=O)NCC#Cc3nccs3)CC2)c1 [Example 297],< 0.1
9,O=C(NC/C=C/C(=O)N1CC[C@@H](O)C1)C(=O)NCc1ccccc1C(=O)NC1(c2cccc3ccccc23)CC1 [Example 563],< 0.1
10,COc1ccc(C2(NC(=O)c3ccccc3CNC(=O)C(=O)NCC#N)CC2)cc1Br [Example 229],< 0.1
11,C[C@@H](NC(=O)c1ccccc1CNC(=O)C(=O)NCC#N)c1cc(-c2cnn(C(F)F)c2)cc(C(F)(F)F)c1 [Example 463],0.1 to 1
12,C#CCNC(=O)C(=O)NCc1ccccc1C(=O)NC1(c2cc(F)cc(-c3cn(C)nc3C)c2)CC1 [Example 234],< 0.1
13,COC(=O)/C=C/CNC(=O)C(=O)NCc1ccccc1C(=O)N[C@H](C)c1cc(-c2cnn(C(F)F)c2)cc(C(F)(F)F)c1 [Example 462],< 0.1
14,N#CCNC(=O)C(=O)NCc1ccccc1C(=O)NC1(c2cc(-c3cnn(C4CC4)c3)nc3c2ccn3C2CC2)CC1 [Example 413],< 0.1
15,COC(=O)/C=C/CNC(=O)C(=O)NCc1cc(F)c(F)cc1C(=O)N[C@H](C)c1cccc2ccccc12 [Example 362],< 0.1
16,COc1cccnc1C#CCNC(=O)C(=O)NCc1ccccc1C(=O)NC1(c2ccc3nn(C)cc3c2)CC1 [Example 270],< 0.1
17,CC(C)OC(=O)/C=C/CNC(=O)C(=O)NCc1ccccc1C(=O)NC1(c2cccc3ccccc23)CC1 [Example 538],0.1 to 1
18,C#CCNC(=O)C(=O)NCc1ccccc1C(=O)NC1(c2cc(OC)c3nn(C4CC4)cc3c2)CC1 [Example 343],< 0.1
19,C#CCNC(=O)C(=O)NCc1ccccc1C(=O)NC1(c2cc(Cl)cc(C(=O)N(C)c3ccc(F)cc3)c2)CC1 [Example 77],< 0.1
20,N#CCNC(=O)C(=O)NCc1ccccc1C(=O)NC1(c2cc(-c3ccn(C(F)F)n3)cc3ccccc23)CC1 [Example 293],< 0.1
21,COc1cccnc1C#CCNC(=O)C(=O)NCc1ccccc1C(=O)NC1(c2cc(F)cc(-c3cn(C)nc3C)c2)CC1 [Example 258],< 0.1

row,SMILES,IC50 [µM]
1,N#CCNC(=O)C(=O)NCc1ccccc1C(=O)NC1(c2cc(F)cc(-c3cccs3)c2)CC1 [Example 220],< 0.1
2,C#CCNC(=O)C(=O)NCc1ccccc1C(=O)NC1(c2cc(Cl)cc(-c3ccccc3F)c2)CC1 [Example 444],< 0.1
3,COC(=O)/C=C/CNC(=O)C(=O)NNc1ccccc1C(=O)NC1(c2cccc3ccccc23)CC1 [Example 576],< 0.1
4,O=C(NCC#Cc1nccs1)C(=O)NCc1ccccc1C(=O)NC1(c2cc(F)cc(-n3cc(C4CC4)cn3)c2)CC1 [Example 489],< 0.1
5,COc1cccnc1C#C[C@H](C)NC(=O)C(=O)NCc1ccccc1C(=O)NC1(c2cc(F)cc(-c3cnn(C4CC4)c3)c2)CC1 [Example 265],< 0.1
6,O=C(C#CCNC(=O)C(=O)NCc1ccccc1C(=O)NC1(c2cccc3ccccc23)CC1)N[C@H]1CC[C@H](C(F)(F)F)CC1 [Example 520],< 0.1
7,C[C@@H](C#Cc1ccc(C#N)cc1F)NC(=O)C(=O)NCc1ccccc1C(=O)NC1(c2cc(F)cc(-c3cnn(C4CC4)c3)c2)CC1 [Example 145],< 0.1
8,O=C(NC/C=C/C(=O)N1CCCCO1)C(=O)NCc1ccccc1C(=O)NC1(c2cccc3ccccc23)CC1 [Example 566],0.1 to 1
9,N#CCNC(=O)C(=O)NCc1ccccc1C(=O)NC1(c2cccc3c(C#N)cccc23)CC1 [Example 308],< 0.1
10,C#CCNC(=O)C(=O)NCc1ccccc1C(=O)NC1(c2cc(Cl)cc(-n3cccn3)c2)CC1 [Example 481],0.1 to 1
11,CN1CCC1COc1ccc(CNC(=O)C(=O)NCC#N)c(C(=O)NC2(c3cccc4ccccc34)CC2)c1 (stereo not drawn) [Example 331],< 0.1
12,CS(=O)(=O)/C=C/CNC(=O)C(=O)NCc1ccccc1C(=O)NC1(c2ccc3ccccc3c2)CC1 [Example 161],< 0.1
13,COc1cccnc1C#C[C@H](C)NC(=O)C(=O)NCc1ccccc1C(=O)NC1(c2ccc3nn(C)cc3c2)CC1 [Example 273],< 0.1
14,CN1CCC(n2cc(-c3cc(F)cc(C4(NC(=O)c5ccccc5CNC(=O)C(=O)NCC#Cc5nccs5)CC4)c3)cn2)CC1 [Example 255],< 0.1
15,COCC1CCCN1c1cc(C2(NC(=O)c3ccccc3CNC(=O)C(=O)NCC#N)CC2)c2ccccc2c1 (stereo not drawn) [Example 324],< 0.1
16,O=C(NCC#Cc1nccs1)C(=O)NCc1ccccc1C(=O)NC1(c2cc(-c3cnn(C4CC4)c3)cc(C3CC3)c2)CC1 [Example 134],< 0.1
17,COc1cnc(C#CCNC(=O)C(=O)NCc2ccccc2C(=O)NC2(c3ccc4ccccc4c3)CC2)cn1 [Example 198],< 0.1
18,CON(C)C(=O)C#CCNC(=O)C(=O)NCc1ccccc1C(=O)NC1(c2cccc3ccccc23)CC1 [Example 524],< 0.1
19,N#CN1CC(CNC(=O)C(=O)NCc2ccccc2C(=O)NC2(c3cccc4ccccc34)CC2)C1 [Example 435],< 0.1
20,CC(C)n1ncnc1C#C[C@H](C)NC(=O)C(=O)NCc1ccccc1C(=O)NC1(c2cc(F)cc(-c3cnn(C4CC4)c3)c2)CC1 [Example 276],< 0.1
21,CC1(CNC(=O)C(=O)NCc2ccccc2C(=O)NC2(c3cccc4ccccc34)CC2)CN(C#N)C1 [Example 429],< 0.1

# System: SARS-CoV-2 replicon
# Assay: microbe, parasite or virus in culture
# Format: cell-based
# Details: Severe acute respiratory syndrome coronavirus 2, Huh-7
row,SMILES,EC50 [µM]
1,COc1ccc(C2(NC(=O)c3ccccc3CNC(=O)C(=O)NCC#Cc3nccs3)CC2)cc1-c1cnn(C2CC2)c1 [Example 247],< 1
2,C[C@@H](NC(=O)c1ccccc1CNC(=O)C(=O)NCC#N)c1cc(-c2cccs2)cc(C(F)(F)F)c1 [Example 460],< 1
3,C[C@@H](C#Cc1nccs1)NC(=O)C(=O)NCc1ccccc1C(=O)NC1(c2cc(Cl)c3nn(C4CC4)cc3c2)CC1 [Example 335],< 1
4,C#CCNC(=O)C(=O)NCc1ccccc1C(=O)NC1(c2cc(Cl)cc(-c3cnn(C4CC4)c3)c2)CC1 [Example 453],< 1
5,O=C(NCC#Cc1cnc(C(F)(F)F)nc1)C(=O)NCc1ccccc1C(=O)NC1(c2ccc3ccccc3c2)CC1 [Example 181],< 1
6,C[C@H](NC(=O)c1ccccc1CNC(=O)C(=O)NCC#N)c1cc(C(F)(F)F)nc2ccccc12 [Example 327],1 to 10
7,N#C/C=C/CNC(=O)C(=O)NCc1ccccc1C(=O)NC1(c2ccc3c4c(cccc24)CC3)CC1 [Example 438],< 1
8,Cc1nn(C)c(C)c1-c1cc(F)c(F)c(C2(NC(=O)c3ccccc3CNC(=O)C(=O)NCC#Cc3nccs3)CC2)c1 [Example 297],< 1
9,O=C(NC/C=C/C(=O)N1CC[C@@H](O)C1)C(=O)NCc1ccccc1C(=O)NC1(c2cccc3ccccc23)CC1 [Example 563],> 10
10,COc1ccc(C2(NC(=O)c3ccccc3CNC(=O)C(=O)NCC#N)CC2)cc1Br [Example 229],1 to 10
11,C[C@@H](NC(=O)c1ccccc1CNC(=O)C(=O)NCC#N)c1cc(-c2cnn(C(F)F)c2)cc(C(F)(F)F)c1 [Example 463],1 to 10
12,C#CCNC(=O)C(=O)NCc1ccccc1C(=O)NC1(c2cc(F)cc(-c3cn(C)nc3C)c2)CC1 [Example 234],< 1
13,COC(=O)/C=C/CNC(=O)C(=O)NCc1ccccc1C(=O)N[C@H](C)c1cc(-c2cnn(C(F)F)c2)cc(C(F)(F)F)c1 [Example 462],< 1
14,N#CCNC(=O)C(=O)NCc1ccccc1C(=O)NC1(c2cc(-c3cnn(C4CC4)c3)nc3c2ccn3C2CC2)CC1 [Example 413],< 1
15,COC(=O)/C=C/CNC(=O)C(=O)NCc1cc(F)c(F)cc1C(=O)N[C@H](C)c1cccc2ccccc12 [Example 362],< 1
16,COc1cccnc1C#CCNC(=O)C(=O)NCc1ccccc1C(=O)NC1(c2ccc3nn(C)cc3c2)CC1 [Example 270],< 1
17,CC(C)OC(=O)/C=C/CNC(=O)C(=O)NCc1ccccc1C(=O)NC1(c2cccc3ccccc23)CC1 [Example 538],1 to 10
18,C#CCNC(=O)C(=O)NCc1ccccc1C(=O)NC1(c2cc(OC)c3nn(C4CC4)cc3c2)CC1 [Example 343],< 1
19,C#CCNC(=O)C(=O)NCc1ccccc1C(=O)NC1(c2cc(Cl)cc(C(=O)N(C)c3ccc(F)cc3)c2)CC1 [Example 77],1 to 10
20,N#CCNC(=O)C(=O)NCc1ccccc1C(=O)NC1(c2cc(-c3ccn(C(F)F)n3)cc3ccccc23)CC1 [Example 293],< 1
21,COc1cccnc1C#CCNC(=O)C(=O)NCc1ccccc1C(=O)NC1(c2cc(F)cc(-c3cn(C)nc3C)c2)CC1 [Example 258],< 1

row,SMILES,EC50 [µM]
1,N#CCNC(=O)C(=O)NCc1ccccc1C(=O)NC1(c2cc(F)cc(-c3cccs3)c2)CC1 [Example 220],1 to 10
2,C#CCNC(=O)C(=O)NCc1ccccc1C(=O)NC1(c2cc(Cl)cc(-c3ccccc3F)c2)CC1 [Example 444],< 1
3,COC(=O)/C=C/CNC(=O)C(=O)NNc1ccccc1C(=O)NC1(c2cccc3ccccc23)CC1 [Example 576],< 1
4,O=C(NCC#Cc1nccs1)C(=O)NCc1ccccc1C(=O)NC1(c2cc(F)cc(-n3cc(C4CC4)cn3)c2)CC1 [Example 489],< 1
5,COc1cccnc1C#C[C@H](C)NC(=O)C(=O)NCc1ccccc1C(=O)NC1(c2cc(F)cc(-c3cnn(C4CC4)c3)c2)CC1 [Example 265],< 1
6,O=C(C#CCNC(=O)C(=O)NCc1ccccc1C(=O)NC1(c2cccc3ccccc23)CC1)N[C@H]1CC[C@H](C(F)(F)F)CC1 [Example 520],< 1
7,C[C@@H](C#Cc1ccc(C#N)cc1F)NC(=O)C(=O)NCc1ccccc1C(=O)NC1(c2cc(F)cc(-c3cnn(C4CC4)c3)c2)CC1 [Example 145],< 1
8,O=C(NC/C=C/C(=O)N1CCCCO1)C(=O)NCc1ccccc1C(=O)NC1(c2cccc3ccccc23)CC1 [Example 566],1 to 10
9,N#CCNC(=O)C(=O)NCc1ccccc1C(=O)NC1(c2cccc3c(C#N)cccc23)CC1 [Example 308],< 1
10,C#CCNC(=O)C(=O)NCc1ccccc1C(=O)NC1(c2cc(Cl)cc(-n3cccn3)c2)CC1 [Example 481],1 to 10
11,CN1CCC1COc1ccc(CNC(=O)C(=O)NCC#N)c(C(=O)NC2(c3cccc4ccccc34)CC2)c1 (stereo not drawn) [Example 331],< 1
12,CS(=O)(=O)/C=C/CNC(=O)C(=O)NCc1ccccc1C(=O)NC1(c2ccc3ccccc3c2)CC1 [Example 161],< 1
13,COc1cccnc1C#C[C@H](C)NC(=O)C(=O)NCc1ccccc1C(=O)NC1(c2ccc3nn(C)cc3c2)CC1 [Example 273],< 1
14,CN1CCC(n2cc(-c3cc(F)cc(C4(NC(=O)c5ccccc5CNC(=O)C(=O)NCC#Cc5nccs5)CC4)c3)cn2)CC1 [Example 255],< 1
15,COCC1CCCN1c1cc(C2(NC(=O)c3ccccc3CNC(=O)C(=O)NCC#N)CC2)c2ccccc2c1 (stereo not drawn) [Example 324],1 to 10
16,O=C(NCC#Cc1nccs1)C(=O)NCc1ccccc1C(=O)NC1(c2cc(-c3cnn(C4CC4)c3)cc(C3CC3)c2)CC1 [Example 134],< 1
17,COc1cnc(C#CCNC(=O)C(=O)NCc2ccccc2C(=O)NC2(c3ccc4ccccc4c3)CC2)cn1 [Example 198],< 1
18,CON(C)C(=O)C#CCNC(=O)C(=O)NCc1ccccc1C(=O)NC1(c2cccc3ccccc23)CC1 [Example 524],< 1
19,N#CN1CC(CNC(=O)C(=O)NCc2ccccc2C(=O)NC2(c3cccc4ccccc34)CC2)C1 [Example 435],< 1
20,CC(C)n1ncnc1C#C[C@H](C)NC(=O)C(=O)NCc1ccccc1C(=O)NC1(c2cc(F)cc(-c3cnn(C4CC4)c3)c2)CC1 [Example 276],< 1
21,CC1(CNC(=O)C(=O)NCc2ccccc2C(=O)NC2(c3cccc4ccccc34)CC2)CN(C#N)C1 [Example 429],< 1

# — US20240327334A1, “Covalent Inhibitors As Antiviral Agents” (Enanta Pharmaceuticals, Inc., priority 2022, published 2024)
